Among the data in ChEMBL document CHEMBL3232801, “Oxidative stress in Alzheimer's disease: are we connecting the dots?” (J Med Chem, 2014) are IC50 and inhibition values, retold here.

The target of assay [1] is T1, Acetylcholinesterase (Homo sapiens, UniProt P22303). Briefly: Inhibition of AChE (unknown origin).
In assay [2] the target is T1, Acetylcholinesterase. The experiment in a line: Inhibition of AChE (unknown origin)-mediated amyloid beta aggregation at 100 uM.
Assay [3] deals with T2, Amyloid-beta precursor protein (Homo sapiens, UniProt P05067). The experiment in a line: Inhibition of amyloid beta (unknown origin) aggregation.
T2 sequence (P05067 whole entry): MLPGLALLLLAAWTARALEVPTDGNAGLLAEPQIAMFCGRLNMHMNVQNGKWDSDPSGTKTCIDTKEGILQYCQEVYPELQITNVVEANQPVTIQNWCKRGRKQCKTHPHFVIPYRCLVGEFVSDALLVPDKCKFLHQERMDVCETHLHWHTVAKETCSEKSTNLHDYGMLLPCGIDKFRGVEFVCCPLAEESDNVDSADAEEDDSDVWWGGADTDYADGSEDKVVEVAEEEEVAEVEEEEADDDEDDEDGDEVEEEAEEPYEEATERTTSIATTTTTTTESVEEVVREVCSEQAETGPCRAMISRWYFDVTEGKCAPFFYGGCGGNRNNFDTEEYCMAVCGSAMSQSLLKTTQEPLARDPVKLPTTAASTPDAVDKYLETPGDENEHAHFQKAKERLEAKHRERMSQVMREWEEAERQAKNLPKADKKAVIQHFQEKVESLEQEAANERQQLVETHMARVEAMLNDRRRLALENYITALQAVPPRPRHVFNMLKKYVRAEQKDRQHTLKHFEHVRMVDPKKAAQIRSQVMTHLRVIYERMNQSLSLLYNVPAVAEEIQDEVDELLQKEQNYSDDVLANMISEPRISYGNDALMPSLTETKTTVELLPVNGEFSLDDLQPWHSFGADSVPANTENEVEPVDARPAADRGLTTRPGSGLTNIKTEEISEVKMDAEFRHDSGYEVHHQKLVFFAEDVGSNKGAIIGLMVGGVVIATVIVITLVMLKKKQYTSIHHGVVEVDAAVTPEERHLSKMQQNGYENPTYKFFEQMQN
The target of assay [4] is T2, Amyloid-beta precursor protein. Briefly: Inhibition of amyloid beta (unknown origin) aggregation at 25 uM.
Assay [5] shares this target. Briefly: Inhibition of amyloid beta (unknown origin) aggregation at 10 uM.
The target in assay [6] is T1, Acetylcholinesterase. Briefly: Inhibition of AChE (unknown origin) assessed as inhibition of ROS production.

T1 sequence (P22303 whole entry): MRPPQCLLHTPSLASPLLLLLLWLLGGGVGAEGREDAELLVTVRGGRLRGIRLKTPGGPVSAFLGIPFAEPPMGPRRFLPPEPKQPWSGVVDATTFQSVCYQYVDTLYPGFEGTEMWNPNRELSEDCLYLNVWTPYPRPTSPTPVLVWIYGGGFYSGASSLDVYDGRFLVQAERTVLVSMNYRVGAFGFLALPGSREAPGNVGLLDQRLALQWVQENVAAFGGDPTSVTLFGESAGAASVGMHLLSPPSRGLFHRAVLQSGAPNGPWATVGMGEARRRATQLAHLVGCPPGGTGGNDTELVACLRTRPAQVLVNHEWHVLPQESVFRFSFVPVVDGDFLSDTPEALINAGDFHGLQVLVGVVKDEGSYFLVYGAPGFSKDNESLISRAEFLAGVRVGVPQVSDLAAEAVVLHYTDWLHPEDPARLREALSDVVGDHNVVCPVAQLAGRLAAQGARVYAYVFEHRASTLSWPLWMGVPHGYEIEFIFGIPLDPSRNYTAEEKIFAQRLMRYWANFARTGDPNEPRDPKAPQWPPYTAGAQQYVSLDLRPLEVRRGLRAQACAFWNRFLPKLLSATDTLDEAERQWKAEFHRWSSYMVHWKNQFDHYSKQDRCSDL

As to `c1ccc2c(NCCSSCCNc3c4c(nc5ccccc35)CCCC4)c3c(nc2c1)CCCC3`, the IC50 against Acetylcholinesterase [1] worked out at 0.00504 µM; in assay [3], 24.2 µM. Also, at Acetylcholinesterase [2], the inhibition was determined as 52.6%.
Compound `COc1cc(/C=C/C(=O)NCCCCCCNc2c3c(nc4ccccc24)CCCC3)ccc1O` came in with an IC50 against Acetylcholinesterase [1] of 0.0116 µM. This compound gave an inhibition in assay [4] of 100%.
Regarding `O=C(CCCOc1cccc2[nH]c3ccccc3c12)NCCCNc1c2c(nc3ccccc13)CCCC2`, the IC50 on Acetylcholinesterase [1] turned out to be 0.00215 µM; at Acetylcholinesterase [6] it was 23 µM. The inhibition on Acetylcholinesterase [2] came out at 57.7%; in assay [5], 36%.
